Experimental data published in PMC7278979, “Ellagic Acid Controls Cell Proliferation and Induces Apoptosis in Breast Cancer Cells via Inhibition of Cyclin-Dependent Kinase 6” (International Journal of Molecular Sciences, 2020).

Tests used:
[1] = tested on: MDA-MB-231 cells; assay: Apoptosis assay (Annexin-V staining, flow cytometry); assay type: cell-based, human; conditions: MDA-MB-231, IC50 concentration of EA, 48 h
[2] = tested on: MCF-7 cells; assay: Cell viability MTT assay; assay type: cell-based; conditions: Homo sapiens, MCF7, MCF-7, 48 h (Figure 8 legend; method says 72 h), mean ± SD n = 3
Method: (§1) Cell viabilities of cancer cells with or without EA were evaluated using MTT assay. Briefly, the selected cells (MCF-7 and MDA-MB-231) were seeded in a 96-well (5000–6000 cells/well) culture plate. Overnight grown cells were incubated with EA (0–250 μM) for 72 h in a CO2 incubator, at 37 °C. After a stipulated time of treatment, 20 µL of MTT (from 5 mg/mL stock solution in PBS, pH 7.4) was added to each treatment well of 96-well plate, and plates with MTT solution were incubated additionally for 4–5 h, in the CO2 incubator. Lastly, the formazan were solubilized by adding 100 µL of DMSO to each well. The absorbance (A) of the dissolved purple reaction solution was measured at 570 nm. Absorption readings were converted into percent cell viability and used to estimate 50% inhibitory concentration (IC50) of EA for selected cancer cells.

[3] = tested on: MDA-MB-231 cells; assay: Cell viability MTT assay; assay type: cell-based; conditions: Homo sapiens, MDA-MB-231, 48 h (Figure 8 legend; method says 72 h), mean ± SD n = 3
Method: as §1

[4] = biological target: T1, CDK6 (Homo sapiens, UniProt Q00534); assay: ATPase enzyme inhibition assay (malachite green); assay type: biochemical; conditions: CDK6 1 µM, ATP 50 µM, 25 °C, 1 h, AAT Bioquest calculator
T1 construct: The 981-bp coding region (326 amino acids) was amplified by PCR from plasmid pcDNA containing the CDK6 gene; His-tag; made in house; host or cells: E. coli BL21 (codon+), pET28a+ (NcoI/XhoI)
Method: ATPase assay was performed to see the CDK6 inhibitory activity of EA [57]. For a typical kinase reaction, freshly prepared ATP (50 µM) was incubated with CDK6 (1 µM) in a reaction volume of 100 μL and incubated at 25 °C for 1 h. Similar reactions were set up with the increasing concentration of EA. Malachite green (200 μL) was further added to the reaction mixture to stop the reaction followed by incubation of samples at room temperature for 20–25 min for the development of color. The absorbance of the final reaction product was measured spectrophotometrically at 620 nm.

[5] = biological target: T1, CDK6; assay: Fluorescence binding (quenching) study with recombinant CDK6; conditions: for Ksv: Stern-Volmer plot; for ΔG°: van 't Hoff equation
Method: To study the binding affinity of EA with the recombinant CDK6, a fluorescence binding study was performed. CDK6 was titrated with the EA and corresponding emission spectra were recorded in the range of 300–400 nm after carrying out excitation at 280 nm. The inner filter effect was corrected for the obtained intensities. Fluorescence emission spectra were analyzed by the Stern-Volmer equation to find Stern-Volmer constant (Ksv) and modified Stern-Volmer equation to estimate the binding constant (K) and the number of binding sites (n). Other binding features were estimated by our previously described protocol.
With each reaction, changes in enthalpy and entropy are associated, which are evidence of the type of reaction taking place. Equation (1) (“van ’t Hoff equation”) was employed to calculate the thermodynamic parameters associated with this binding, (1) ΔG°=−RTLnK=ΔH°−TΔS°

[6] = tested on: MCF-7 cells; assay: Apoptosis assay (Annexin-V staining, flow cytometry); assay type: cell-based, human; conditions: MCF-7, IC50 concentration of EA, 48 h
[7] = biological target: T1, CDK6; assay: Isothermal titration calorimetry of EA with CDK6; conditions: ITC, 25 °C, one binding site model; read-out: Ka (binding constant) (converted)
Method: ITC measurements were carried out at 25 °C using a VP-ITC microcalorimeter (MicroCal, Inc, GE, MicroCal, USA). The sample cell was filled with 15–20 µM CDK6 and 500 µM EA solution was filled in the syringe. An automated titration was carried out with (including a first false injection of 2 μL) a successive injection of 10 μL EA solution into a CDK6 sample cell at a 260 s interval with 320 rpm stirring speed. For analysis, the heat of dilution of EA in the sample buffer was subtracted from the titration data. MicroCal Origin 8.0 was used to analyze the stoichiometry of binding (n), enthalpy change (ΔH), an association constant (Ka).

[8] = tested on: CDK6; assay: CDK6 expression study (immunoblotting); assay type: cell-based, human; conditions: EA-treated vs vehicle control, immunoblot
Method: The cell lysates of EA-treated/untreated MCF-7 and MDA-MB-231 cell lines were prepared using RIPA cell lysis buffer (Thermo Fisher Scientific (USA)) and total protein was isolated. The amount of protein was quantified by a BCA-protein estimation kit. Nearly, 50–60 μg of total protein was subjected for SDS-PAGE, and obtained bands were blotted to polyvinylidene fluoride membrane. The protein of interest was identified using respective primary antibodies and horseradish peroxidase (HRP) conjugated secondary IgG using the luminol method.

[9] = tested on: MCF-7 cells; assay: Colony formation assay; assay type: cell-based, human; conditions: MCF-7, IC50 concentration of EA, 10–12 days, vs vehicle control
Method: (§2) To perceive the effect of EA treatment on the colonogenic potential of selected cell lines colony formation studies were performed as described previously. Briefly, ~1500–2000 (MCF-7/MDA-MB-231 cells) cells/well were seeded (in triplicates) in each well of a 6-well cell culture plate. The cells were grown in complete cell growth medium for 48 h and incubated with respective IC50 concentrations of EA for 10–12 days, (at 37 °C, in a 5% CO2 incubator). On the other hand, the control cells were incubated with vehicle control (DMSO) under similar experimental conditions. After 10–12 days, the colonies of cells were fixed with 100% methanol and subsequently stained using a 0.4% crystal violet solution (prepared in 25% methanol. Finally, the colonies obtained after staining were photographed, quantified, plotted, and analyzed by comparing with vehicle control.

[10] = tested on: MDA-MB-231 cells; assay: Colony formation assay; assay type: cell-based, human; conditions: MDA-MB-231, IC50 concentration of EA, 10–12 days, vs vehicle control
Method: as §2

[11] = van 't Hoff plot over 298, 301, 303 K (same value printed at each temperature)

T1 sequence (Q00534 whole entry): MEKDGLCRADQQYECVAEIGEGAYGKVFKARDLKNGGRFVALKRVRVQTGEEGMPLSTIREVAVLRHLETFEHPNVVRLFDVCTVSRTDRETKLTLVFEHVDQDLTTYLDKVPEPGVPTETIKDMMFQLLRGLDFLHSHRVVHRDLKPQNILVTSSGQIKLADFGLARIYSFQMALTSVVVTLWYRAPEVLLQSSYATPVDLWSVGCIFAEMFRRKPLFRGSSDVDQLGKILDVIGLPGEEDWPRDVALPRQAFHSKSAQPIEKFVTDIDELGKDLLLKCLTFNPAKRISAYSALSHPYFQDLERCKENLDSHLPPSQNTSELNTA

O=c1oc2c(O)c(O)cc3c(=O)oc4c(O)c(O)cc1c4c23 [EA, ellagic acid]
Annexin-V positive cells (apoptosis) [1]: 27.9% | IC50 [2]: 29100 ± 1150 nM | IC50 [3]: 20500 ± 1220 nM | IC50 [4]: 3050 nM | Kq (bimolecular quenching rate constant) ([5]; 298 K): 5.8 10^12 M^−1s^−1 | TΔS° ([5]; 298 K): 84.60 kcal/mol | Kq (bimolecular quenching rate constant) ([5]; 301 K): 14.2 10^12 M^−1s^−1 | TΔS° ([5]; 301 K): 85.45 kcal/mol | Kq (bimolecular quenching rate constant) ([5]; 303 K): 19.8 10^12 M^−1s^−1 | TΔS° ([5]; 303 K): 86.02 kcal/mol | Ksv ([5]; 298 K): 5.8 10^4 M^−1 | Ksv ([5]; 301 K): 14.2 10^4 M^−1 | Ksv ([5]; 303 K): 19.8 10^4 M^−1 | binding constant (K) ([5]; fluorescence quenching, modified Stern-Volmer, 303 K): 2.6e+07 M⁻¹ | Kd ([5]; fluorescence quenching, modified Stern-Volmer, 303 K, read-out: binding constant (K)): 100 nM | n (number of binding sites) ([5]; modified Stern-Volmer, 298 K): 1.32 | Kd ([5]; modified Stern-Volmer, 298 K, read-out: K (binding constant) (converted)): 345 nM | n (number of binding sites) ([5]; modified Stern-Volmer, 301 K): 1.16 | Kd ([5]; modified Stern-Volmer, 301 K, read-out: K (binding constant) (converted)): 154 nM | n (number of binding sites) ([5]; modified Stern-Volmer, 303 K): 1.41 | Kd ([5]; modified Stern-Volmer, 303 K, read-out: K (binding constant) (converted)): 38.5 nM | ΔG° ([5]; 298 K): -8.73 kcal/mol | ΔG° ([5]; 301 K): -9.59 kcal/mol | ΔG° ([5]; 303 K): -10.16 kcal/mol | ΔH° [5, 11]: 75.8657 kcal/mol | ΔS [5, 11]: 283.9087 cal.mol^−1K^−1 | Annexin-V positive cells (apoptosis) [6]: 23.3% | Kd [7]: 39700 nM | expression of CDK6 ([8]; MCF-7 cells): decreases the expression of CDK6 | expression of CDK6 ([8]; MDA-MB-231 cells): decreases the expression of CDK6 | number of colonies [9]: decreases the number of colonies significantly | number of colonies [10]: decreases the number of colonies significantly
